Molecules are shown by their SMILES. Read-outs that look alike come from different tables or passages of the source.

This test deals with HIV-1 expression in latently infected resting CD4 T cells from HIV-1 Infected Subjects on cART. The test is described as follows: microbe, parasite or virus in culture. Format: cell-based. Conditions: Human immunodeficiency virus 1, CD4+ T; for fold induction at 0.3 µM: 0.25 h, read-out: Fold HIV Activation, Geometric Mean, 0.3 μM Carfilzomib, 15 min pulse; for fold induction at 0.015 µM: 24 h; for fold induction at 0.04 µM: 4 h, read-out: Fold HIV Activation, Geometric Mean, 40 nM Romidepsin, 4 h pulse. The method, then:
The leukapheresis product was diluted with PBS and layered over Ficoll for isolation of PBMCs. PBMCs were treated with red blood cell lysis buffer and rested overnight (10 million cells/ml) in tissue culture medium (RPMI 1640 supplemented with 10% FBS and Pen/Strep) before the isolation of resting (CD69-CD25-HLA-DR-) CD4 T cells according to the manufacturer's instructions (EasySep Human CD4 T cell Enrichment Kit modified to also deplete CD69+, CD25+, or HLA-DR+ cells). Resting CD4 T cells were cultured in four replicate wells per condition with the indicated compounds or with dimethyl sulfoxide (DMSO, vehicle control) for 6 days. To assess latency reversal that occurs in response to mitogenic activation of T cells, cells were incubated with 50 ng/ml phorbol 12-myristate 13-acetate (PMA) and 500 ng/ml ionomycin. Unless otherwise indicated, continuous exposure was used. Where pulses are indicated, at the end of the pulse, cells were spun three times at 500×g for 5 min, supernatant was decanted and replaced with an equal volume of fresh media. When in combination with another compound that was not pulsed, the compound with continuous exposure was added back at the indicated concentration. The cultures were maintained in the presence of antivirals (elvitegravir and efavirenz at 100 nM each) to prevent viral spread and amplification in order to measure the quantity of virions produced (latency reversal) by the indicated compounds. At the end of the incubation period, cell-free culture supernatants were harvested and HIV-1 RNA levels were quantified by the COBAS® AmpliPrep/COBAS® TaqMan HIV-1 Test, v2.0 (Roche). Romidepsin was used as a control. Romidepsin is a HDAC inhibitor with HIV latency reversal activity (PLoS pathogens (2015), 11(9), e1005142). The combination of a phorbol ester (PMA) and a calcium ionophore (ionomycin) was also used as a mitogenic control that has strong HIV latency reversal activity. As this combination induces global T cell proliferation and activation, systemic administration would likely induce significant toxicity. As such, PMA and ionomycin are useful strictly as a tool to monitor the amount of virus that can be produced in response to a strongly activating stimuli.

Turning to `CC(C)C[C@H](NC(=O)[C@H](CCc1ccccc1)NC(=O)CN1CCOCC1)C(=O)N[C@@H](Cc1ccccc1)C(=O)N[C@@H](CC(C)C)C(=O)[C@@]1(C)CO1` [Carfilzomib, carfilzomib, reference compound], the fold induction at 0.3 µM is, setting by setting: (geometric mean of subjects, Table 6 (n = 9)) 1.04; (geometric mean of subjects, Table 11 (n = 3)) 0.94; (geometric mean of subjects, Table 12 (n = 3)) 0.94.

In the case of `COC[C@H](NC(=O)c1cnc(C)s1)C(=O)N[C@@H](COC)C(=O)N[C@@H](Cc1ccccc1)C(=O)[C@@]1(C)CO1` [Oprozomib, oprozomib, reference compound], the fold induction at 0.1 µM (1 h, read-out: Fold HIV Activation, Geometric Mean, 100 nM Oprozomib, 1 hr pulse, geometric mean of subjects, Table 7 (n = 7)) came to 2.37.

As for `COc1cc2c(cc1NC(=O)Cn1cnc(C#N)n1)oc1ccccc12` [Compound 2], the fold induction at 1 µM (144 h, read-out: Fold HIV Activation, 1 μM Compound 2, 6 days, individual subjects, Table 2) amounted to 1.04 and the fold induction at 1 µM (read-out: Fold HIV Activation, Geometric Mean, 1 μM Compound 2, geometric mean of subjects, Table 2 (n = 8)) is 1.09. In addition, the fold induction at 6 µM reads like this: (144 h, read-out: Fold HIV Activation, 6 μM Compound 2, 6 days, individual subjects, Table 2) 4.41; (read-out: Fold HIV Activation, Geometric Mean, 6 μM Compound 2, geometric mean of subjects, Table 2 (n = 8)) 3.56. Also, the fold induction at 3 µM was determined as 3.42 (read-out: Fold HIV Activation, 3 μM Compound 2, individual subjects, Table 8); 2.76 (read-out: Fold HIV Activation, Geometric Mean, 3 μM Compound 2, geometric mean of subjects, Table 2 (n = 8)); 2.46 (read-out: Fold HIV Activation, Geometric Mean, 3 μM Compound 2, geometric mean of subjects, Table 8 (n = 2)); 2.75 (read-out: Fold HIV Activation, Geometric Mean, 3 μM Compound 2, geometric mean of subjects, Table 11 (n = 3)).

With `N#Cc1ncn(CC(=O)Nc2ccc3c(c2)C(=O)c2ccccc2-3)n1` [Compound 3, 2-(3-cyano-1H-1,2,4-triazol-1-yl)-N-(9-oxo-9H-fluoren-2-yl)acetamide], the fold induction at 6 µM is, setting by setting: (144 h, read-out: Fold HIV Activation, 6 μM Compound 3, 6 days, individual subjects, Table 3) 3.75; (read-out: Fold HIV Activation, Geometric Mean, 6 μM Compound 3, geometric mean of subjects, Table 3 (n = 8)) 2.61. In addition, the fold induction at 1 µM (read-out: Fold HIV Activation, Geometric Mean, 1 μM Compound 3, geometric mean of subjects, Table 3 (n = 8)) amounted to 1.62. For the same compound, the fold induction at 3 µM is, setting by setting: (read-out: Fold HIV Activation, Geometric Mean, 3 μM Compound 3, geometric mean of subjects, Table 3 (n = 8)) 2.31; (read-out: Fold HIV Activation, Geometric Mean, 3 μM Compound 3, geometric mean of subjects, Table 9 (n = 2)) 1.99; (read-out: Fold HIV Activation, Geometric Mean, 3 μM Compound 3, geometric mean of subjects, Table 12 (n = 3)) 2.59.

As for `CC(C)C[C@H](NC(=O)[C@H](Cc1ccccc1)NC(=O)c1cnccn1)B(O)O` [Bortezomib, bortezomib, reference compound], the fold induction at 0.015 µM (read-out: Fold HIV Activation, 15 nM bortezomib, 24 hr pulse, individual subjects, Table 8) is 3.47; the fold induction at 0.015 µM (read-out: Fold HIV Activation, 15 nM bortezomib, 24 hr pulse, individual subjects, Table 9) was 3.47; the fold induction at 0.015 µM (read-out: Fold HIV Activation, Geometric Mean, 15 nM Bortezomib 24 h pulse, geometric mean of subjects, Table 5 (n = 10)) worked out at 1.36; the fold induction at 0.015 µM (read-out: Fold HIV Activation, Geometric Mean, 15 nM bortezomib, 24 hr pulse, geometric mean of subjects, Table 8 (n = 2)) stood at 3.64; the fold induction at 0.015 µM (read-out: Fold HIV Activation, Geometric Mean, 15 nM bortezomib, 24 hr pulse, geometric mean of subjects, Table 9 (n = 2)) was determined as 3.64; the fold induction at 0.015 µM (read-out: Fold HIV Activation, Geometric Mean, 15 nM bortezomib, 24 hr pulse, geometric mean of subjects, Table 10 (n = 3)) was found to be 2.23.

Regarding `C#CCOc1cc2c(cc1NC(=O)Cn1cnc(C#N)n1)oc1ccccc12` [Compound 4, 2-(3-cyano-1H-1,2,4-triazol-1-yl)-N-(2-(prop-2-yn-1-yloxy)dibenzo[b,d]furan-3-yl)acetamide], the fold induction at 1 µM by setting is: (144 h, read-out: Fold HIV Activation, 1 μM Compound 4, 6 days, individual subjects, Table 4) 1.09; (read-out: Fold HIV Activation, Geometric Mean, 1 μM Compound 4, geometric mean of subjects, Table 4 (n = 5)) 1.09. The fold induction at 6 µM was 3.03 (144 h, read-out: Fold HIV Activation, 6 μM Compound 4, 6 days, individual subjects, Table 4) and 3.97 (read-out: Fold HIV Activation, Geometric Mean, 6 μM Compound 4, geometric mean of subjects, Table 4 (n = 5)). Moreover, the fold induction at 3 µM runs as follows: (read-out: Fold HIV Activation, Geometric Mean, 3 μM Compound 4, geometric mean of subjects, Table 4 (n = 5)) 3.54; (read-out: Fold HIV Activation, Geometric Mean, 3 μM Compound 4, geometric mean of subjects, Table 10 (n = 3)) 3.54.

Regarding `C/C=C1\NC(=O)[C@H]2CSSCC/C=C/[C@H](CC(=O)N[C@H](C(C)C)C(=O)N2)OC(=O)[C@H](C(C)C)NC1=O` [Romidepsin, reference compound], the fold induction at 0.04 µM reads like this: (geometric mean of subjects, Table 1 (n = 10)) 2.73; (geometric mean of subjects, Table 2 (n = 8)) 3.16; (geometric mean of subjects, Table 3 (n = 8)) 3.16; (geometric mean of subjects, Table 4 (n = 5)) 2.33.

`N#Cc1ncn(CC(=O)Nc2ccc3oc4ccccc4c3c2)n1` [Compound 1]: the fold induction at 1 µM (read-out: Fold HIV Activation, Geometric Mean, 1 μM Compound 1, geometric mean of subjects, Table 1 (n = 10)) stood at 1.03. The fold induction at 3 µM was 2.94 (read-out: Fold HIV Activation, Geometric Mean, 3 μM Compound 1, geometric mean of subjects, Table 1 (n = 10)); 3.12 (read-out: Fold HIV Activation, Geometric Mean, 3 μM Compound 1, geometric mean of subjects, Table 5 (n = 10)); 3.53 (read-out: Fold HIV Activation, Geometric Mean, 3 μM Compound 1, geometric mean of subjects, Table 6 (n = 9)); 5.92 (read-out: Fold HIV Activation, Geometric Mean, 3 μM Compound 1, geometric mean of subjects, Table 7 (n = 7)). Further, the fold induction at 6 µM (read-out: Fold HIV Activation, Geometric Mean, 6 μM Compound 1, geometric mean of subjects, Table 1 (n = 10)) is 6.32.
